This note sets out measurements from PubChem BioAssay (NCI).

Assay in all cases: growth of human tumour cells (NCI), 48 h
The subject of test [1] is KM20L2 colon.
Test [2] deals with XF 498 CNS.
Test [3] has as its system DMS 273 small cell lung.
Test [4] deals with SNB-78 CNS.
For test [5], the system named is M19-MEL melanoma.
In test [6] the test system is RPMI-8226 leukemia.
The subject of test [7] is SNB-19 CNS.
Test [8] concerns HS 578T breast.
Test [9] concerns MDA-N.
Test [10] deals with MDA-MB-231 breast.

Molecules are shown by their SMILES.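 Growth conditions: 96-well plates. Treatment: test compound, 48 hours, 5 concentrations. Analysis: linear interpolation between bracketing concentrations; unreached endpoints set to highest concentration. TGI is the concentration that stops growth completely.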

For `CC(=O)NNc1nc(C)c(C(/C=C/c2ccc(Cl)cc2)=N\N=C(N)N)s1`, the TGI in test [1], in [2], in [3], in test [4], in [5] and in test [6] was > 100 µM in each case. Further, in [7], the TGI was > 100 µM.
Regarding `O=C(CSc1nnc(Cc2ccccc2)o1)Nc1ccc(Cl)cc1[N+](=O)[O-]`, the TGI turned out to be 45.9 µM in test [1]; 31.3 µM in test [2]; 33.9 µM in test [3]; 47.6 µM in test [4]; 34.8 µM in test [5]; 49.6 µM in [6]. This molecule registered a TGI in [7] of 31 µM.
On to `C=C1C2C[C@@H]3O[C@H]4C[C@H]5O[C@@]6(C[C@@H]7O[C@]8(C[C@H](C)[C@@H]9O[C@@H]%10CC(C=O)O[C@@H]%10C[C@@H]9O8)C[C@H](C)[C@@H]7O6)C[C@H]5O[C@H]4[C@H](C)[C@H]3OC(=O)C[C@H]3CC[C@@H]4OC5[C@H]6O[C@]7(CC[C@H]8CC(=C)[C@H](CC[C@@H](C[C@H]1C)O2)O8)CC6O[C@@H]5[C@@H](O7)[C@H]4O3` (stereo not given in full), for which the TGI is < 0.0001 µM in test [8]; < 0.0001 µM in test [9]; 0.000326 µM in test [6]; > 0.218 µM in test [10]; > 1 µM in [7].
In the case of `O=C1C[C@@H]2[C@@H](CCC23CCCC3)N1`, the TGI in test [1], in test [3], in test [4], in test [5], in test [6] and in [7] was > 100 µM in each case.
As for `CN(CC(=O)O)CC(=O)O`, the TGI in test [8], in test [9], in test [6], in test [10] and in test [7] was > 100 µM each time.
On to `Brc1c2c(c(Br)c3nsnc13)N=S=N2`, for which the TGI is 75 µM in test [8]; > 73 µM in test [9]; 78.1 µM in test [6]; 60.7 µM in [10]; > 70 µM in [7].
Taken in the same sequence, the figures for `O=C(NC(=O)c1ccccc1)OC(c1ccccc1)C1CO1` (stereo not given) were > 100 µM, > 100 µM, > 100 µM, > 100 µM and > 100 µM.
Taken in the same sequence, the figures for `N#Cc1sc2c(c1OC(=O)c1ccc(Cl)cc1)c(=O)n(-c1ccccc1)c(=S)n2-c1ccccc1` were 56.2 µM, 55.1 µM, 45.3 µM, 97 µM and 61.4 µM.
In the case of `O=C1N=CN=C2C=CC(Cl)=C(I)C12` (stereo not given), the TGI in test [1], in test [2], in [3], in test [5], in test [6] and in test [7] was > 100 µM each time.
For the molecule `COC(=O)[C@H](C)NC(=O)C1(CNC(=O)[C@H](C)NC(=O)OC(C)(C)C)Cc2ccccc2-c2ccccc2C1`, the TGI was > 60.1 µM in test [8]; > 58.5 µM in test [9]; 23.9 µM in test [6]; 35.4 µM in test [10]; > 100 µM in test [7].
Take `CC(C)COC(=O)c1ccc(N=Cc2ccc(C=Nc3ccc(C(=O)OCC(C)C)cc3)cc2)cc1`: the TGI in test [1], in test [2], in test [3], in test [4], in test [5] and in test [6] was > 100 µM throughout. Further, in test [7], the TGI was > 100 µM.
Take `COc1ccc(C(OC(=O)[C@H](O[Si](C)(C)C(C)(C)C)[C@@H](NC(=O)c2ccccc2)c2ccccc2)c2ccc(OC)cc2)cc1`: the TGI in test [8] was > 100 µM; in test [9], > 100 µM; in test [6], 25.1 µM; in [10], > 100 µM; in [7] it was > 100 µM.
With `Cc1ccc(C(=O)O)c(/C=C2\Cc3cc(C)cc(C)c3C2=O)c1`, the TGI in test [8], in test [9], in test [6], in [10] and in test [7] was > 100 µM in each case.
As to `C=C[C@]1(C)CC(=O)C(C(C)C=O)[C@]12C(=O)Oc1cccc(C)c1C2=O` (stereo not given in full), the TGI is 42.7 µM in [8]; 27.6 µM in test [9]; > 100 µM in [6]; 31.6 µM in test [10]; 24.6 µM in [7].
Taken in the same sequence, the figures for `CN1CN(c2ccccc2)C2(CCN(C3Nc4ccccc4O3)CC2)C1=O` (stereo not given) were 37.7 µM, 49.1 µM, 58 µM, 44.6 µM and 74.4 µM.
Taken in the same sequence, the figures for `O=C(NNC(=S)Nc1ccc(Cl)cc1)C12CC3CC(CC(C3)C1)C2` were 83 µM, 43.6 µM, 2.28 µM, 19.6 µM and > 79.2 µM.
In the same order, the values of `CN1C(=O)N/C(=C\c2ccc(S(=O)(=O)N/N=C/c3ccccc3)cc2)C1=O` are > 100 µM, > 100 µM, > 100 µM, > 100 µM and > 100 µM.
As to `Cc1cccc2c(N)c3cccc(C(=O)NCC[N+](C)(C)Cc4ccc(S(C)(=O)=O)cc4)c3nc12`, the TGI in test [8] is > 100 µM; in test [9], > 100 µM; in test [6] it was > 45.4 µM; in test [10] it was > 100 µM; in test [7], > 100 µM.
For `Cc1nn(C(=O)c2ccc(Cl)cc2)c2c1C(c1ccccc1O)SC(N)=N2` (stereo not given), the TGI in test [8], in test [9], in test [6], in test [10] and in test [7] was > 10 µM throughout.
With `CC(C)(C)C(O)CC(O)(C(F)(F)F)C(F)(F)F` (stereo not given), the TGI in test [8], in [9], in test [6], in test [10] and in test [7] was > 100 µM in each case.
`O=C(O)CCNc1ncc2c(n1)-c1ccccc1OC2`: the TGI in [8], in test [9], in test [6], in test [10] and in [7] was > 100 µM in each case.
Regarding `CCOC(CN(C)C(=O)Nc1ccc(Cl)c(Cl)c1)OCC`, the TGI in test [8], in test [9], in [6], in [10] and in test [7] was > 10 µM each time.
As to `CCCCCCCCCC(=O)NCCc1c[nH]c2ccc(OC)cc12`, the TGI in test [8] was 42.8 µM; in test [9] it was 35.5 µM; in [6], 67 µM; in [10], 30.9 µM; in [7], 31.2 µM.
Take `OCC(O)C(O)C(O)C(O)CNCCO/N=C1/C(c2c(O)[nH]c3ccccc23)=Nc2ccccc21` (stereo not given): the TGI is 44.4 µM in [8]; 19.4 µM in test [9]; > 50 µM in test [6]; 29.7 µM in test [10]; 35.9 µM in [7].
With `Cc1ccc(N=NN(C)C(C)C(O)Cc2ccccc2)cc1` (stereo not given), the TGI in test [8], in [9], in test [6], in test [10] and in [7] was > 100 µM in each case.
For `CC(C)C1CC(CO)(CNc2nc(N)nc(Cl)c2/C=N\O)C1` (stereo not given), the TGI in test [8] is 53.8 µM; in test [9] it was 23.9 µM; in test [6], 31.9 µM; in test [10], 31.6 µM; in [7], > 100 µM.
In the case of `CC1(c2nc3ccccc3[nH]2)CCC(C#N)C(C)(C)O1` (stereo not given), the TGI in [8], in test [9], in test [6], in test [10] and in [7] was > 100 µM each time.
With `CC(=O)Nc1ncc2c(n1)-c1ccccc1OC2c1ccccc1` (stereo not given), the TGI was 55.4 µM in test [8]; > 100 µM in [9]; > 100 µM in test [6]; 75.3 µM in [10]; 89.6 µM in test [7].
In the case of `N#CC(NNC(=O)c1c(Cl)c(Cl)c(Cl)c(Cl)c1-c1nc2ccc(C(=O)c3ccccc3)cc2[nH]1)c1ccccc1` (stereo not given), the TGI was > 100 µM in [8]; 6.78 µM in test [9]; 24.9 µM in [6]; 36.4 µM in test [10]; 99.2 µM in test [7].
As for `COc1ccc(C(=O)N2CCN(c3ccc4c(c3)OCC(=O)N4)CC2)cc1OC`, the TGI in test [8], in test [9], in [6], in [10] and in test [7] was > 100 µM each time.
`COc1ccc(Cc2cc(OC)c(OC)c(OC)c2)cc1`: the TGI in [3] is > 100 µM; in test [4], > 100 µM; in [5], > 100 µM; in test [6], 39.1 µM; in test [10], > 30.7 µM; in [7] it was > 100 µM.
Regarding `CC1OC(OC2C(OC(=O)[C@]34CCC(C)(C)CC3C3=CCC5[C@@]6(C)C[C@H](O)[C@H](OC7OC(COC8OC(CO)C(O)C(O)C8O)C(O)C(O)C7O)[C@@](C)(C(=O)O)C6CC[C@@]5(C)C3(C)CC4)OCC(O)C2O)C(O)C(O)C1OC1OCC(O)C(O)C1O` (stereo not given in full), the TGI in test [1], in test [3], in test [4], in test [5], in test [6] and in test [7] was > 100 µM each time.
Regarding `O=C1NC(=S)N/C1=C\c1ccc(Cl)cc1`, the TGI in [8], in test [9], in [6], in test [10] and in test [7] was > 100 µM each time.
For `Fc1cc(C2=Nn3c(CNc4ccc(Cl)cc4)nnc3S/C2=C\c2ccc(-c3ccc(Cl)cc3)o2)c(Cl)cc1Cl`, the TGI in [8] was > 100 µM; in test [9], > 100 µM; in test [6], 79.1 µM; in [10], 32.2 µM; in test [7] it was > 100 µM.
Regarding `Cc1cc(N(CCC#N)CCC#N)ccc1/C=C1N=C(/C=C/c2ccccc2)N(c2ccc(S(N)(=O)=O)cc2)C\1=O`, the TGI in test [1], in [4], in test [5], in [6] and in test [7] was > 100 µM throughout.
Consider `COc1ccc(OC)c(N=Cc2cc(OC)c(OC)c(OC)c2)c1`, for which the TGI in [8] was > 100 µM; in test [9] it was > 100 µM; in test [6], > 76.6 µM; in test [10], > 100 µM; in test [7], > 100 µM.
For the molecule `CCC(=O)N(c1ccccc1)C(C)CN1CCC(O)(c2cccc(C(F)(F)F)c2)CC1` (stereo not given), the TGI in test [8] was 99.7 µM; in test [9] it was 39.2 µM; in [6], 45.3 µM; in test [10], 44.7 µM; in test [7] it was > 100 µM.
Taken in the same sequence, the figures for `COc1ccc(-c2[nH]c(-c3ccc(OC)cc3)c(-c3ccccn3)c2-c2ccccn2)cc1` were > 100 µM, > 100 µM, 69.5 µM, > 100 µM and > 100 µM.
As to `CC(O)CC(=O)CO[C@H]1[C@H](O)[C@@H](O)[C@@H](O)[C@@H]2NC(=O)c3c(cc4c(c3O)OCO4)[C@H]21` (stereo not given in full), the TGI in test [8] amounted to 0.153 µM; in test [9] it was 0.446 µM; in [6], 0.147 µM; in test [10], 0.545 µM; in test [7], 0.0754 µM.
